{"source": "patent US9902986B2", "about": "“Enterobactin conjugates and uses thereof” (Massachusetts Institute of Technology, priority 2013, dated 2018)", "test_system": "E. coli ATCC 33475 (ent-)", "format": "cell-based, Escherichia coli", "description": "General microbiology methods are as described herein or according to processes known in the art. […] Bacterial growth was assayed by measuring OD600 using a BioTek Synergy HT plate reader. Each well condition was prepared in duplicate and three independent replicates of each assay were conducted on different days. The resulting mean OD600 are reported and the error bars are the standard deviation of the mean obtained from the three independent replicates.\nThree non-pathogenic E. coli strains were employed that are defective in enterobactin synthesis, enterobactin transport, or ferric enterobactin utilization in growth recovery assays. E. coli ATCC 33475 (ent-) cannot biosynthesize enterobactin, but retains the capacity to import and metabolize the siderophore.^71 E. coli H1187 (fepA-) lacks the outer membrane enterobactin receptor. E. coli K-12 JW0576 (fes-) can accumulate ferric enterobactin, but cannot release the iron because it is deficient in the enterobactin esterase Fes. As a result of these defects in iron metabolism, all three strains grow poorly under conditions of iron limitation.^71 The iron chelator 2,2′-dipyridyl (dipyridyl, DP) was used to generate iron-deficient conditions and promote expression of siderophore transport machinery in the growth recovery assays.", "data": [{"smiles": "O=C(NCCCCCC(=O)N1CCN(c2cc3c(cc2F)c(=O)c(C(=O)O)cn3C2CC2)CC1)c1cc(O)c(O)c(C(=O)N[C@H]2COC(=O)[C@@H](NC(=O)c3cccc(O)c3O)COC(=O)[C@@H](NC(=O)c3cccc(O)c3O)COC2=O)c1", "note": "[conjugate 40, 7-(4-(6-(3-(((3S,7S,11S)-7,11-Bis(2,3-dihydroxybenzamido)-2,6,10-trioxo-1,5,9-trioxacyclododecan-3-yl)carbamoyl)-4,5-dihydroxybenzamido)hexanoyl)piperazin-yl)-1-cyclopropyl-6-fluoro-4-oxo-1,4-dihydroquinoline-3-carboxylic acid]", "values": [{"measurement": "effect on E. coli growth in the absence of DP", "value": "concentration-dependent inhibition of E. coli growth"}]}, {"smiles": "O=C(NCCOCCOCCOCCNC(=O)c1cc2cc3c4c(c2oc1=O)CCCN4CCC3)c1cc(O)c(O)c(C(=O)N[C@H]2COC(=O)[C@@H](NC(=O)c3cccc(O)c3O)COC(=O)[C@@H](NC(=O)c3cccc(O)c3O)COC2=O)c1", "note": "[conjugate 34, N^3-((3S,7S,11S)-7,11-Bis(2,3-dihydroxybenzamido)-2,6,10-trioxo-1,5,9-trioxacyclododecan-3-yl)-4,5-dihydroxy-N^1-(1-oxo-1-(11-oxo-2,3,5,6,7,1-hexahydro-1H-pyrano[2,3-f]pyrido[3,2,1-ij]quinolin-10-yl)-5,8,11-trioxa-2-azatridecan-13-yl)isophthalamide]", "values": [{"measurement": "toxicity to E. coli", "setting": "under iron limitation", "value": "no toxicity"}]}, {"smiles": "O=C(NCCOCCOCCOCCC(=O)N1CCN(c2cc3c(cc2F)c(=O)c(C(=O)O)cn3C2CC2)CC1)c1cc(O)c(O)c(C(=O)N[C@H]2COC(=O)[C@@H](NC(=O)c3cccc(O)c3O)COC(=O)[C@@H](NC(=O)c3cccc(O)c3O)COC2=O)c1", "note": "[conjugate 35, 7-(4-(1-(3-(((3S,7S,11S)-7,11-Bis(2,3-dihydroxybenzamido)-2,6,10-trioxo-1,5,9-trioxacyclododecan-3-yl)carbamoyl)-4,5-dihydroxyphenyl)-1-oxo-5,8,11-trioxa-2-azatetradecan-14-oyl)piperazin-1-yl)-1-cyclopropyl-6-fluoro-4-oxo-1,4-dihydroquinoline-3-carboxylic acid]", "values": [{"measurement": "effect on E. coli growth in the absence of DP", "value": "concentration-dependent inhibition of E. coli growth"}]}, {"smiles": "CN[C@H](CC(C)C)C(=O)N[C@H]1C(=O)N[C@@H](CC(N)=O)C(=O)N[C@H]2C(=O)N[C@H]3C(=O)N[C@H](C(=O)N[C@H](C(=O)O)c4cc(O)cc(O)c4-c4cc3ccc4O)[C@H](O)c3ccc(c(Cl)c3)Oc3cc2cc(c3O[C@@H]2OC(CO)[C@@H](O)C(O)C2O[C@H]2CC(C)(N)[C@H](O)C(C)O2)Oc2ccc(cc2Cl)[C@H]1O", "note": "(stereo partly shown) [vancomycin, reference compound]", "values": [{"measurement": "activity against E. coli", "setting": "over the concentration range employed", "value": "inactive against E. coli"}]}]}
